US7348329B2, “Therapeutic agent for keratoconjunctival disorder” (Santen Pharmaceutical Co., Ltd., priority 2003, dated 2008)

Test system: corneal damage in corneal disorder models
Assay: Test for therapeutic effect on corneal damage (corneal disorder model, exorbital lacrimal gland removed)
Type: in vivo, male SD rats
Settings: for Effect on corneal damage (in words): male SD rat corneal disorder model; for Effect on corneal damage (in words) / Improvement ratio (%): 0.02% eye drops 6 times a day for 7 days; for Improvement ratio (%) / Mean value of total scores (fluorescein staining of upper, middle and lower parts of the cornea): male SD rat; for Improvement ratio (%): {(control)-(compound)}/{(control)-(normal eye)}x100, control = 0%; for Mean value of total scores (fluorescein staining of upper, middle and lower parts of the cornea): 0.02% in physiological saline instilled into both eyes 6 times a day for 7 days, scored 7 days after start, mean of 8 eyes, each part scored 0-3
Method: Test for Therapeutic Effect on Corneal Damage
Using male SD rats, in accordance with the method of Fujihara et al. (Invest. Ophthalmol. Vis. Sci. 42 (1): 96-100 (2001)), corneal disorder models were produced. After the production of the corneal disorder models, the improvement ratio of a corneal damage was evaluated according to the method of Murakami et al. (journal of the eye 21 (1): 87-90 (2004))
A male SD rat was systemically anesthetized by an administration of Nembutal. Subsequently the exorbital lacrimal gland was removed and a corneal damage was induced over a period of 2 months.
Then, 5-[4-[[3-methyl-4-oxo-3,4-dihydro-2-quinazolinyl]methoxy]phenylmethyl]thiazolidine-2,4-dione (Compound A) or N-[(4-methoxyphenoxy)carbonyl]-N-[[4-[2-(5-methyl-2-phenyl-4-oxazolyl)ethoxy]phenyl]methyl]glycine (Compound B) was administered as follows.
A physiological saline solution of Compound A (0.02%) was instilled into both eyes 6 times a day for 7 days (one group consisting of 4 animals, 8 eyes).
A physiological saline solution of Compound B (0.02%) was instilled into both eyes 6 times a day for 7 days (one group consisting of 4 animals, 8 eyes).
In a control group, physiological saline was instilled into both eyes 6 times a day for 7 days (one group consisting of 4 animals, 8 eyes).
Seven days after the start of instillation, the damaged parts of the cornea were stained with fluorescein. For each of the upper, middle and lower parts of the cornea, the degree of fluorescein staining was evaluated by scoring according to the criteria shown below and the mean value of the total scores for each of the above-mentioned parts was calculated.
Further, the mean value of the total scores for the normal eye was also calculated.
• 0: No punctate staining • 1: Scattered staining (punctate, separated staining) • 2: Moderate staining(a part of punctate staining being adjacent) • 3: Heavy staining (punctate, barely separated staining) (Results)
By taking the mean value of the total scores for the control group (physiological saline) as a reference (improvement ratio: 0%), the calculation was carried out according to the calculation formula shown below. Each of the improvement ratios for the Compound A administered group and the Compound B administered group are shown in Table 1 and Table 2. The mean value of the scores is a mean of those of 8 cases, respectively. Improvement ratio (%)={(control)−(the present compound)}/damage degree×100 Damage degree=(control)−(normal eye)

Cn1c(COc2ccc(CC3SC(=O)NC3=O)cc2)nc2ccccc2c1=O (stereo not drawn) [Compound A, 5-[4-[[3-methyl-4-oxo-3,4-dihydro-2-quinazolinyl]methoxy]phenylmethyl]thiazolidine-2,4-dione]
Effect on corneal damage (in words): significantly improve a corneal damage | Improvement ratio (%): 40.0% | Mean value of total scores (fluorescein staining of upper, middle and lower parts of the cornea): 4.8

COc1ccc(OC(=O)N(CC(=O)O)Cc2ccc(OCCc3nc(-c4ccccc4)oc3C)cc2)cc1 [Compound B, N-[(4-methoxyphenoxy)carbonyl]-N-[[4-[2-(5-methyl-2-phenyl-4-oxazolyl)ethoxy]phenyl]methyl]glycine]
Effect on corneal damage (in words): significantly improve a corneal damage | Improvement ratio (%): 42.3% | Mean value of total scores (fluorescein staining of upper, middle and lower parts of the cornea): 5.2
